Experimental data taken from patent US9157064B2, “Methods for generating inner ear cells in vitro” (The Board of Trustees of the Leland Stanford Junior …, priority 2011, dated 2015).
“Also recorded” adds a separate entry of the source.

What was measured:
Type in all cases: cell-based, mouse
[1] = test system: ESC-derived hair cell-like cell; test: Mechanically induced currents of ESC-derived hair cell-like cells (patch clamp); settings: local application of 1 mM DHSM to hair bundles, then mechanical stimulation
Experimental: (§1) nGFP-expressing hair cell-like cells were identified by fluorescence microscopy, and nearby hair bundle-like protrusions were imaged with a […] objective with brightfield optics. Recordings were conducted with an Axoclamp 200a (Axon Instruments) amplifier, interfaced with a DIGIDATA® 1332 board (Axon), and jClamp Software (Scisoft). Mechanical stimulation was done with a stiff glass probe attached to a piezo stack.
(§2) More specifically, cultured cells were placed onto the stage of an OLYMPUS® BX 51 fixed stage upright microscope and imaged using a 100× dipping objective using brightfield optics. Images were collected using a C2400 NARISHIGE® analog camera coupled via a framegrabber to a PC computer using Image J software. Soda glass electrodes, coated with ski wax (MR. ZOG'S SEX WAX®) to limit stray capacitance, of resistances 3-5MΩ, were used to record from both ES and iPS cells. The culture medium was replaced during electrophysiological recordings with a solution containing (in mM) 140 NaCl, 5 KCl, 1 MgCl2, 2.5 CaCl, 10 HEPES, 6 glucose, 2 pyruvate, 2 ascorbate, 2 creatine. […] Data was analyzed with ORIGIN® software (Microcal). […]
(§3) Adaptation is a complex process in which hair bundle dynamic range is enhanced and sensitivity maintained over large displacements (Eatock, 2000). […] The fast time constant measured was 0.5±0.4 ms (n=5) and the slow was 11±5 ms (n=5). […]

[2] = test system: iPSC-derived hair cell-like cell; test: Mechanically induced currents of iPSC-derived hair cell-like cells (patch clamp); settings: local application of 1 mM DHSM to hair bundles, then mechanical stimulation
Experimental: as §1, §2, §3

ESC-derived cultures = test: Otic induction of ESC-derived embryoid body cultures (Pax2 immunostaining); settings: ESC derivatives; not treated with any of the three initial factors, but treated with bFGF
Experimental: (§4) Embryoid bodies were transferred into fibronectin-coated 4-well dishes (Greiner) at 30 embryoid bodies per well and cultured for three days in DMEM/F12 (Invitrogen, mixed 1:1) supplemented with N2 and B27 (Invitrogen), bFGF (R&D Systems, 25 ng/ml), heparin sulfate (Sigma, 50 ng/ml), and ampicillin ([…]). FGF3 (recombinant human FGF-3, R&D Systems) and FGF10 (recombinant human FGF-10, R&D Systems) were used at 25 ng/ml in parallel experiments. The FGF receptor antagonist SU5402 (a gift from Pfizer R&D) was used at […]. After FGF-treatment, the cells were detached using 0.05% trypsin/EDTA (Sigma) in PBS, mildly triturated, and passed 1:10 into individual wells of 4-well dishes coated with either fibronectin, gelatin, MEFs, or mitotically inactivated embryonic (E18) chicken utricle stromal cells. Utricle stromal cells were prepared from 20 utricles whose sensory epithelia were removed after 40 min treatment with 0.5 mg/ml thermolysin (Sigma) in DMEM/F12 at 37 C. After addition of 5% serum, the sensory epithelia were removed and used in unrelated experiments. […]
(§5) For immunocytochemistry, the cells were fixed with 4% paraformaldehyde in PBS for 15 min at room temperature. […] Images were acquired with a Zeiss Axioimager/LSM 5 Exciter fluorescence and confocal microscope. […]

iPSC-derived cultures = test: Otic induction of iPSC-derived embryoid body cultures (Pax2 immunostaining); settings: iPSC derivatives; not treated with any of the three initial factors, but treated with bFGF
Experimental: as §4, §5

Compound | mechanically induced (evoked) currents [1] | mechanically induced (evoked) currents [2] | Pax2-expressing cells (ESC-derived cultures) | Pax2-expressing cells (iPSC-derived cultures)
CN[C@@H]1[C@H](O[C@H]2[C@H](O[C@H]3[C@H](O)[C@@H](O)[C@H](NC(=N)N)[C@@H](O)[C@@H]3NC(=N)N)O[C@@H](C)[C@]2(O)CO)O[C@@H](CO)[C@H](O)[C@H]1O [DHSM, dihydrostreptomycin] | antagonized reversibly; also recorded: reversibly blocked | antagonized reversibly; also recorded: reversibly blocked |  | 
bFGF: fibroblast growth factor FGF2 (bFGF), general otic inducer |  |  | 0.05±0.04% | 0.1±0.09%
